In patent publication US20230322767A1, “ARYL SUBSTITUTED PYRROLO-PYRIDINONES AND THERAPEUTIC USES THEREOF” (Bayer Aktiengesellschaft, priority 2020, published 2023):

Legend:
CSNK1A1 = CSNK1A1 (Homo sapiens (Human), UniProt P48729); assay: CSNK1A1 Assay 2 (ADP-Glo, 1 μM ATP); type: biochemical; conditions: median, read-out: CSNK1A1 Assay 2 IC50 [mol/l] (median)
Protocol: CSNK1A1-inhibitory activity of compounds of the present invention in presence of 1 μM adenosine-tri-phosphate (ATP) was quantified employing the CSNK1A1 assay as described in the following paragraphs. In essence, the enzyme activity is measured by quantification of the adenosine-di-phosphate (ADP), which is generated as a co-product of the enzyme reaction, via the “ADP-Glo™ Kinase Assay” kit from the company Promega. This detection system works as follows: In a first step the ATP not consumed in the kinase reaction is quantitatively converted to cAMP employing an adenylate cyclase (“ADP-Glo-reagent”), then the adenylate cyclase is stopped and the ADP generated in the kinase reaction converted to ATP which generates in a luciferase-based reaction a glow-luminescence signal (“Kinase Detection Reagent”).
As substrate for the kinase reaction the biotinylated peptide biotin-Ahx-KRRRAL-pS-VASLPGL (C-terminus in amide form) was used which can be purchased e.g. from the company Biosyntan (Berlin-Buch, Germany).
For the assay 50 nl of a 100 fold concentrated solution of the test compound in DMSO was pipetted into a white 1536-well microtiter plate (Greiner Bio-One, Frickenhausen, Germany), 2 μL of a solution of CSNK1A1 in aqueous assay buffer [50 mM HEPES pH 7.5, 10% (v/v) glycerol, 10 mM MgCl2, 50 mM NaCl, 1 mM dithiothreitol, 0.01% (w/v) bovine serum albumin, 0.01% (v/v) Triton X-100] were added and the mixture was incubated for 15 min at 22° C. to allow pre-binding of the test compounds to the enzyme before the start of the kinase reaction. […] The concentration of CSNK1A1 was adjusted depending of the activity of the enzyme lot and was chosen appropriate to have the assay in the linear range, a typical concentrations are about 0.0375 ng/μL. The reaction was stopped by the addition of 2.5 μL of “ADP-Glo-reagent” (1:1.5 fold diluted with water) and the resulting mixture was incubated at 22° C. for 1 h to convert the ATP not consumed in the kinase reaction completely […]. Subsequently 2.5 μL of the “kinase detection reagent” (1.2 fold more concentrated than recommended by the producer) were added, the resulting mixture was incubated at 22° C. for 1 h and then the luminescence measured with a suitable measurement instrument (e.g. Viewlux™ from Perkin-Elmer). The amount of emitted light was taken as a measure for the amount of ADP generated and thereby for the activity of the CSNK1A1.

CSNK1D = CSNK1D (Homo sapiens (Human), UniProt P48730); assay: CSNK1D Assay (ADP-Glo, 1 μM ATP); type: biochemical; conditions: median, read-out: CSNK1D IC50 [mol/l] (median)
Sequence of CSNK1D (P48730 whole entry): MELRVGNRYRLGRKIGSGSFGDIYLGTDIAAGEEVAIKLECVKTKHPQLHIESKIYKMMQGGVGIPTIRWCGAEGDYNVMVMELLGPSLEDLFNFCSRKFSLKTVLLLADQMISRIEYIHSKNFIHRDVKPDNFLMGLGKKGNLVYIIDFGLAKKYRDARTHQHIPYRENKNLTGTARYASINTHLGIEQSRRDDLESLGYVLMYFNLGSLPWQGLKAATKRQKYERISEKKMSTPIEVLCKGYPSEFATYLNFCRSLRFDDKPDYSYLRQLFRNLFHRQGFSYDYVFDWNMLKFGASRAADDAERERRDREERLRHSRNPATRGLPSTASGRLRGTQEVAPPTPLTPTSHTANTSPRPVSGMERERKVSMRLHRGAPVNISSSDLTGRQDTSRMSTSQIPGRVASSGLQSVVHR
Protocol: CSNK1D-inhibitory activity of compounds of the present invention in presence of 1 μM adenosine-tri-phosphate (ATP) was quantified employing the CSNK1 D assay as described in the following paragraphs. In essence, the enzyme activity is measured by quantification of the adenosine-di-phosphate (ADP), which is generated as a co-product of the enzyme reaction, via the “ADP-Glo™ Kinase Assay” kit from the company Promega. This detection system works as follows: In a first step the ATP not consumed in the kinase reaction is quantitatively converted to cAMP employing an adenylate cyclase (“ADP-Glo-reagent”), then the adenylate cyclase is stopped and the ADP generated in the kinase reaction converted to ATP which generates in a luciferase-based reaction a glow-luminescence signal (“Kinase Detection Reagent”).
As substrate for the kinase reaction the biotinylated peptide Btn-Ahx-[…] (C-terminus in amide form) was used which can be purchased e.g. from the company Biosyntan (Berlin-Buch, Germany).
For the assay 50 nl of a 100 fold concentrated solution of the test compound in DMSO was pipetted into a white 1536-well microtiter plate (Greiner Bio-One, Frickenhausen, Germany), 2 μL of a solution of CSNK1D in aqueous assay buffer [50 mM HEPES pH 7.5, 10% (v/v) glycerol, 10 mM MgCl2, 50 mM NaCl, 1 mM dithiothreitol, 0.01% (w/v) bovine serum albumin, 0.01% (v/v) Triton X-100] were added and the mixture was incubated for 15 min at 22° C. to allow pre-binding of the test compounds to the enzyme before the start of the kinase reaction. […] The concentration of CSNK1D was adjusted depending of the activity of the enzyme lot and was chosen appropriate to have the assay in the linear range, a typical concentration is about 0.5 ng/μL. The reaction was stopped by the addition of 2.5 μL of “ADP-Glo-reagent” (1:1.5 fold diluted with water) and the resulting mixture was incubated at 22° C. for 1 h to convert the ATP not consumed in the kinase reaction completely […]. Subsequently 2.5 μL of the “kinase detection reagent” (1.2 fold more concentrated than recommended by the producer) were added, the resulting mixture was incubated at 22° C. for 1 h and then the luminescence measured with a suitable measurement instrument (e.g. Viewlux™ from Perkin-Elmer). The amount of emitted light was taken as a measure for the amount of ADP generated and thereby for the activity of the CSNK1D.

Sequence of CSNK1A1 (P48729 whole entry): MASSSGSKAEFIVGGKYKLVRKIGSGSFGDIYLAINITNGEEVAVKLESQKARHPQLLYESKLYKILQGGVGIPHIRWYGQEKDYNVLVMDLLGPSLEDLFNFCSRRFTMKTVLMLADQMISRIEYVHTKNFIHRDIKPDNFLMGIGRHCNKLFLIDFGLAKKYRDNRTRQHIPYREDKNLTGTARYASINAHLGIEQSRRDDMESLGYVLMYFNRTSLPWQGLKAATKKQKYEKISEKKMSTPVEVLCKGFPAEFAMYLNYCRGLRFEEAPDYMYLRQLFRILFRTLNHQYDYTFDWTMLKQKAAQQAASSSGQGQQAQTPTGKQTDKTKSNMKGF

Compound	IC50 (CSNK1A1)	IC50 (CSNK1D)
Cc1cn(C)c(=O)c2c(-c3ccc(F)cc3)c(-c3ccnc(NC(=O)C(CC(F)F)c4ccc(F)cc4)c3)[nH]c12 (single isomer, unassigned; (+)) [Example 36, (+)-4,4-difluoro-2-(4-fluorophenyl)-N-{4-[3-(4-fluorophenyl)-5,7-dimethyl-4-oxo-4,5-dihydro-1H-pyrrolo[3,2-c]pyridin-2-yl]pyridin-2-yl}butanamide]	3.5 nM	3.5 nM
CC1CN(C)C(=O)c2c1[nH]c(-c1ccnc(NC(=O)C(CC(F)F)c3ccc(F)cc3)c1)c2-c1ccccc1 (stereo not drawn) [Example 39, N-{4-[5,7-dimethyl-4-oxo-3-phenyl-4,5,6,7-tetrahydro-1H-pyrrolo[3,2-c]pyridin-2-yl]pyridin-2-yl}-4,4-difluoro-2-(4-fluorophenyl)butanamide]	3 nM	3.7 nM
Cn1cc(CC(F)(F)F)c2[nH]c(-c3ccnc(NC(=O)C(CC(F)F)c4ccc(F)cc4)c3)c(-c3ccccc3)c2c1=O (single isomer, unassigned; (-)) [Example 19, (−)-4,4-difluoro-2-(4-fluorophenyl)-N-{4-[5-methyl-4-oxo-3-phenyl-7-(2,2,2-trifluoroethyl)-4,5-dihydro-1H-pyrrolo[3,2-c]pyridin-2-yl]pyridin-2-yl}butanamide]	22 nM	14 nM
Cn1cc(CC2CC2)c2[nH]c(-c3ccnc(NC(=O)C(CC(F)F)c4ccc(F)cc4)c3)c(-c3ccccc3)c2c1=O (racemic) [Example 60, N-{4-[7-(cyclopropylmethyl)-5-methyl-4-oxo-3-phenyl-4,5-dihydro-1H-pyrrolo[3,2-c]pyridin-2-yl]pyridin-2-yl}-4,4-difluoro-2-(4-fluorophenyl)butanamide]	15 nM	9.5 nM
CC(C(=O)Nc1cc(-c2[nH]c3c(CC(F)(F)F)cn(C)c(=O)c3c2-c2ccccc2)ccn1)c1ccc(F)cc1 (single isomer, unassigned; (+)) [Example 15, (+)-2-(4-fluorophenyl)-N-{4-[5-methyl-4-oxo-3-phenyl-7-(2,2,2-trifluoroethyl)-4,5-dihydro-1H-pyrrolo[3,2-c]pyridin-2-yl]pyridin-2-yl}propanamide]	2.3 nM	2.8 nM
CN1CC(CC2CC2)c2[nH]c(-c3ccnc(NC(=O)Cc4ccc(F)cc4)c3)c(-c3ccccc3)c2C1=O (racemic) [Example 55, N-{4-[7-(cyclopropylmethyl)-5-methyl-4-oxo-3-phenyl-4,5,6,7-tetrahydro-1H-pyrrolo[3,2-c]pyridin-2-yl]pyridin-2-yl}-2-(4-fluorophenyl)acetamide]	2 nM	2.2 nM
CN1C(=O)c2c([nH]c(-c3ccnc(NC(=O)C(CC(F)F)c4ccc(F)cc4)c3)c2-c2ccccc2)CC12CCC2 (single isomer, unassigned; (-)) [Example 50, (−)-4,4-difluoro-2-(4-fluorophenyl)-N-[4-(5′-methyl-4′-oxo-3′-phenyl-1′,4′,5′,7′-tetrahydrospiro-[cyclobutane-1,6′-pyrrolo[3,2-c]pyridin]-2′-yl)pyridin-2-yl]butanamide]	12 nM	9.8 nM
CN1CCc2[nH]c(-c3ccnc(NC(=O)C(CC(F)F)c4ccc(F)cc4)c3)c(-c3cccnc3)c2C1=O (single isomer, unassigned) [Example 10, 4,4-difluoro-2-(4-fluorophenyl)-N-{4-[5-methyl-4-oxo-3-(pyridin-3-yl)-4,5,6,7-tetrahydro-1H-pyrrolo[3,2-c]pyridin-2-yl]pyridin-2-yl}butanamide]	110 nM	64 nM
CN1CCc2[nH]c(-c3ccnc(NC(=O)C(CC(F)F)c4ccc(F)cc4)c3)c(-c3cccnc3)c2C1=O (single isomer, unassigned) [Example 11, 4,4-difluoro-2-(4-fluorophenyl)-N-{4-[5-methyl-4-oxo-3-(pyridin-3-yl)-4,5,6,7-tetrahydro-1H-pyrrolo[3,2-c]pyridin-2-yl]pyridin-2-yl}butanamide]	4.3 nM	4.7 nM
CC(C(=O)Nc1cc(-c2[nH]c3c(c2-c2ccccc2)C(=O)N(C)C2(CCC2)C3)ccn1)c1ccc(F)cc1 (single isomer, unassigned; (-)) [Example 53, (−)-2-(4-fluorophenyl)-N-[4-(5′-methyl-4′-oxo-3′-phenyl-1′,4′,5′,7′-tetrahydrospiro[cyclobutane-1,6′-pyrrolo[3,2-c]pyridin]-2′-yl)pyridin-2-yl]propanamide]	21 nM	16 nM
CC(C(=O)Nc1cc(-c2[nH]c3c(CC(F)(F)F)cn(C)c(=O)c3c2-c2ccccc2)ccn1)c1ccc(F)cc1 (racemic) [Example 14, 2-(4-fluorophenyl)-N-{4-[5-methyl-4-oxo-3-phenyl-7-(2,2,2-trifluoroethyl)-4,5-dihydro-1H-pyrrolo[3,2-c]pyridin-2-yl]pyridin-2-yl}propanamide]	4.7 nM	2.7 nM
CC(C(=O)Nc1cc(-c2[nH]c3c(CC(F)(F)F)cn(C)c(=O)c3c2-c2ccc(F)cc2)ccn1)c1ccc(F)cc1 (single isomer, unassigned; (-)) [Example 23, (−)-2-(4-fluorophenyl)-N-{4-[3-(4-fluorophenyl)-5-methyl-4-oxo-7-(2,2,2-trifluoroethyl)-4,5-dihydro-1H-pyrrolo[3,2-c]pyridin-2-yl]pyridin-2-yl}propanamide]	85 nM	37 nM
CC1c2[nH]c(-c3ccnc(NC(=O)C(CC(F)F)c4ccc(F)cc4)c3)c(-c3ccccc3)c2C(=O)N(C)C1C (stereo not drawn) [Example 41, 4,4-difluoro-2-(4-fluorophenyl)-N-{4-[5,6,7-trimethyl-4-oxo-3-phenyl-4,5,6,7-tetrahydro-1H-pyrrolo[3,2-c]pyridin-2-yl]pyridin-2-yl}butanamide]	5.7 nM	6.1 nM
Cn1cc(CC(F)(F)F)c2[nH]c(-c3ccnc(NC(=O)C(CC(F)F)c4ccc(F)cc4)c3)c(-c3ccccc3)c2c1=O (single isomer, unassigned; (+)) [Example 20, (+)-4,4-difluoro-2-(4-fluorophenyl)-N-{4-[5-methyl-4-oxo-3-phenyl-7-(2,2,2-trifluoroethyl)-4,5-dihydro-1H-pyrrolo[3,2-c]pyridin-2-yl]pyridin-2-yl}butanamide]	14 nM	12 nM
CN1CC(CC(F)(F)F)c2[nH]c(-c3ccnc(NC(=O)C(CC(F)F)c4ccc(F)cc4)c3)c(-c3ccccc3)c2C1=O (stereo not drawn) [Example 17, 4,4-difluoro-2-(4-fluorophenyl)-N-{4-[5-methyl-4-oxo-3-phenyl-7-(2,2,2-trifluoroethyl)-4,5,6,7-tetrahydro-1H-pyrrolo[3,2-c]pyridin-2-yl]pyridin-2-yl}butanamide]	4.7 nM	4.3 nM
